# According to patent US20240358684A1, “METHOD FOR ENHANCING INNATE IMMUNE RESPONSE” (Kyoto University, priority 2021, published 2024):
# pIC50: −log10 of the molar value. “And” between values parts separate entries of the source, which are not always exact repeats. Equal entries are not always repeated.
# Key:
# CLK1 = target: T1, CLK1 (Homo sapiens, UniProt P49759); assay: Inhibition confirmation test for CLK (off-chip mobility shift assay); format: biochemical; settings: ATP 10 μM; read-out: CLK1 inhibitory activity (IC50 value)
# T1 construct: Enzyme activity was measured with off-chip mobility shift assay using purified CLK protein
# T1 sequence (P49759 whole entry): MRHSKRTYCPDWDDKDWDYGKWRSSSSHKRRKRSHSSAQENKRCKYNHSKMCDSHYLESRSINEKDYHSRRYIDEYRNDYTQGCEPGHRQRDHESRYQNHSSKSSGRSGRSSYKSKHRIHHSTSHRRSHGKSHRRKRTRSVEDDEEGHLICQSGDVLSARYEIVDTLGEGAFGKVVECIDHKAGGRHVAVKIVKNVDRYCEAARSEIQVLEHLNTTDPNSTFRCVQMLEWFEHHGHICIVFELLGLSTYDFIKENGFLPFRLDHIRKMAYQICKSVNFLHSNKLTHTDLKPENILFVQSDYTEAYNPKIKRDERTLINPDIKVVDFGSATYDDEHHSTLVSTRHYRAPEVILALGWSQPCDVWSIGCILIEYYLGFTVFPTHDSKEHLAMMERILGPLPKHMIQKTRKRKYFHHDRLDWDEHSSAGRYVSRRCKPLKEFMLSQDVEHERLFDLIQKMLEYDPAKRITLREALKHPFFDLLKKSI
# Protocol: Enzyme activity was measured with off-chip mobility shift assay using purified CLK protein. […] The enzyme reaction was performed at room temperature for 1 hour, and the reaction was terminated by adding QuickScout Screening Assist MSA (Carna Biosciences, Inc.). A substrate peptide and a phosphorylated peptide in the enzyme reaction solution were separated and quantified using the LabChip system (Perkin-Elmer, Waltham, MA, USA), and inhibition of CLK was evaluated by calculating a product ratio using the following formula, the substrate peptide peak height (S), and the phosphorylated peptide peak height (P).
# (§1) (P/(P+S)) • P: product-derived peak • S: substrate-derived peak
# CLK2 = target: T2, CLK2 (Homo sapiens, UniProt P49760); assay: as above; format: biochemical; settings: ATP 150 μM; read-out: CLK2 inhibitory activity (IC50 value)
# T2 construct: Enzyme activity was measured with off-chip mobility shift assay using purified CLK protein
# T2 sequence (P49760 whole entry): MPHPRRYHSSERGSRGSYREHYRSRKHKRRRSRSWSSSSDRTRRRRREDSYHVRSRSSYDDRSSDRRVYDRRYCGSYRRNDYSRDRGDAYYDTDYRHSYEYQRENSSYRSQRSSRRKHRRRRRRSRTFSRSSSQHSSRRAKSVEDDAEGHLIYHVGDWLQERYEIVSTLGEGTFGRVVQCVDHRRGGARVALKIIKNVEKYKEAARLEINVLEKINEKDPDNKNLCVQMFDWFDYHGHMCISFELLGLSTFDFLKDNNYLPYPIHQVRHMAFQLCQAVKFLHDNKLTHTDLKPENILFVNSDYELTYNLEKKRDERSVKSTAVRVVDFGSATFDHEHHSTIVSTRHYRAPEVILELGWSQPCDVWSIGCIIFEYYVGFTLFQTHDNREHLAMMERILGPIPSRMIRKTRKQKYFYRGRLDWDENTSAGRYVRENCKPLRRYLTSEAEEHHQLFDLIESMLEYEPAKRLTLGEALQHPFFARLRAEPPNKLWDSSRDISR
# Protocol: (§2) Enzyme activity was measured with off-chip mobility shift assay using purified CLK protein. DYRKtide-F peptide (1 μM) was used as a substrate, and a composition of a reaction solution used was as follows (20 mM HEPES (pH7.5), 0.01% Triton X-100, 1 mM DT7, 1% DMSO, and ATP (10 μM for CLK1, 150 μM for CLK2, and 75 μM for CLK3)). The enzyme reaction was performed at room temperature for 1 hour, and the reaction was terminated by adding QuickScout Screening Assist MSA (Carna Biosciences, Inc.). A substrate peptide and a phosphorylated peptide in the enzyme reaction solution were separated and quantified using the LabChip system (Perkin-Elmer, Waltham, MA, USA), and inhibition of CLK was evaluated by calculating a product ratio using the following formula, the substrate peptide peak height (S), and the phosphorylated peptide peak height (P).
# as §1
# CLK3 = target: T3, CLK3 (Homo sapiens, UniProt P49761); assay: as above; format: biochemical; settings: ATP 75 μM; read-out: CLK3 inhibitory activity (IC50 value)
# T3 construct: Enzyme activity was measured with off-chip mobility shift assay using purified CLK protein
# T3 sequence (P49761 whole entry): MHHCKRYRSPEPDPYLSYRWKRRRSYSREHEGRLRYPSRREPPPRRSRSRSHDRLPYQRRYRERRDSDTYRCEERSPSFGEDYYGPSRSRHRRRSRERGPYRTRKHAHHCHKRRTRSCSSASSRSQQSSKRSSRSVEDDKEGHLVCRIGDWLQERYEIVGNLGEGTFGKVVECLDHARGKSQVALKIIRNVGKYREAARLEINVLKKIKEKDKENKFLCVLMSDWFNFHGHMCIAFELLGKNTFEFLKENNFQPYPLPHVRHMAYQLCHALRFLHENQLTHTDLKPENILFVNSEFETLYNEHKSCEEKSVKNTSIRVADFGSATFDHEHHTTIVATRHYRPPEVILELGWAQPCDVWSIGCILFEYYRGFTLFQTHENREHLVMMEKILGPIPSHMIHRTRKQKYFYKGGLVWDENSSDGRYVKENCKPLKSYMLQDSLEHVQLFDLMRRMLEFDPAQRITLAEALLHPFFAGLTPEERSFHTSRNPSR
# Protocol: as §2, §1
# [1] = system: OAS1 rs10774671 A-allele splicing; assay: RT-PCR for OAS1 alternative splicing profile in Calu-3 (A/A allele) cells; format: cell-based, human; settings: Calu-3, 10 μM, 24 h
# SARS-CoV-2 = format: cell-based
# Calu-3 cells = assay: Transcriptome analysis (RNA-Seq, differential expression and differential alternative splicing) of compound 1-treated Calu-3 cells; format: cell-based, human; settings: 18 h; for delta PSI: 10 μM
# Protocol: Transcriptome analysis for compound 1-treated Calu-3 cells RNAs were extracted using RNeasy Mini kit (QIAGEN, Hilden, Germany) from Calu-3 cells, treated with 10 μM compound 1 or 0.1% DMSO for 18 h, and applied for RNA-Seq analysis. Three technical replicates for RNA-Seq, where each experiment was independently conducted three times from a stocked total RNA. RNA-seq reads were mapped to the human genome sequences (GRCh38) using STAR (ver. 2.7.1a, https://github.com/alexdobin/STAR) with ENCODE options, using the Ensembl genome annotation (ver. 102). Raw reads were counted with bam files, and TPM values were calculated using RSEM v1.2.31 (https://github.com/deweylab/RSEM). Differentially expressed genes were identified using the method described above. Differential alternative splicing (DAS) events were analyzed with the method previously described (Sakuma et al., 2015) using the rMATS program (http://rnaseq-mats.sourceforge.net/rmats4.1.1/). DAS was defined by the following criteria: FDR<0.01, read counts≥15, and delta Percent Spliced-In (PSI)≥0.05. The DAS events were compared with the gene annotation information, the event types were then classified into events on the exons constituting the productive mRNAs, events on additional exons/regions of the productive mRNAs, and others. For characterizing gene set and transcriptome profiles, the Metascape website (https://imetascape.org/) and Gene Set Enrichment Analysis (GSEA, https://ww.gsea-maigdb.org/gsea/) were used. The same samples were also used for RT-PCR.
compound,measurement,setting,value
N=C1NC(=O)/C(=C/c2ccc3c(c2)CCO3)S1 [compound 1],pIC50,CLK1,7.67
same,pIC50,CLK2,7.17
same,pIC50,CLK3,6.94
same,splice-switching for OAS1 with the A-allele (RT-PCR),[1],suppressing p42 splicing while promoting p44a and p44b variant production
same,viral titer fold change,SARS-CoV-2,0.56
same,log10 (TCID50/ml) Batch-effect corrected,"SARS-CoV-2; 10 μM, 2nd batch replicates, listed as Compund 1",7.6 and 7.44 and 7.41
same,log10 (TCID50/ml),"SARS-CoV-2; 10 μM, raw, single replicates of 1st and 2nd batch, listed as Compund 1",7.5 (2×) and 7.25 and 6.75 and 6.5 and 6.45
same,viral titer,"SARS-CoV-2; Calu-3 pre-treated 24 h with 10 μM, MOI 0.01, 48 hours pi, DMSO control 5.18×10^7",2.90×10^7
same,delta PSI,Calu-3 cells; AAMP Intron between E5-E7 RI,−0.307
same,delta PSI,Calu-3 cells; AC107871.1 E2-E3 SE additional exon,−0.333
same,delta PSI,Calu-3 cells; AL117339.4 E2 SE,0.318
same,delta PSI,Calu-3 cells; AL136531.2 E2-E3 SE additional exon,−0.418
same,delta PSI,Calu-3 cells; AL163636.1 E2 SE,0.331
same,delta PSI,Calu-3 cells; APOL1 E3 A3SS,−0.448
same,delta PSI,Calu-3 cells; CABYR E4 A5SS,0.309
same,delta PSI,Calu-3 cells; CDK5RAP2 E32 SE,0.313
same,delta PSI,Calu-3 cells; CENPE E17 SE,0.422
same,delta PSI,Calu-3 cells; CFAP298 Intron between E5-E7 RI,−0.451
same,delta PSI,Calu-3 cells; CLK1 E4 SE,0.331
same,delta PSI,Calu-3 cells; CLK4 E4 SE,0.37
same,delta PSI,Calu-3 cells; CLK4 Intron between E3-E4 RI,−0.346
same,delta PSI,Calu-3 cells; CLK4 Intron between E4-E5 RI,−0.401
same,delta PSI,Calu-3 cells; CYLD E2-E3 SE additional exon,−0.307
same,"differential expression, number of genes","Calu-3 cells; Calu-3, 10 μM",98 genes
same,"splice alterations yielding protein-coding variants, number of genes","Calu-3 cells; Calu-3, 10 μM",63 genes
same,delta PSI,Calu-3 cells; DCUN1D2 E4-E5 SE additional exon,−0.438
same,delta PSI,Calu-3 cells; DMD E71 SE,0.365
same,delta PSI,Calu-3 cells; DNHD1 Intron between E42-E43 RI,−0.31
same,delta PSI,Calu-3 cells; DNM1 E14 SE,0.342
same,delta PSI,Calu-3 cells; DYNC1LI1 Intron between E8-E10 RI,−0.778
same,delta PSI,Calu-3 cells; EPB41 E16-E17 SE additional exon,−0.301
same,delta PSI,Calu-3 cells; FAAP100 E2 A5SS,−0.318
same,delta PSI,Calu-3 cells; GALT Intron between E2-E6 RI,−0.374
same,delta PSI,Calu-3 cells; GK E9 SE,0.322
same,delta PSI,Calu-3 cells; HAT1 Intron between E6-E8 RI,−0.584
same,delta PSI,Calu-3 cells; HERC3 E17 SE,0.309
same,delta PSI,Calu-3 cells; HERC4 E17 SE,0.38
same,delta PSI,Calu-3 cells; IMPDH2 Intron between E3-E5 RI,−0.376
same,delta PSI,Calu-3 cells; KANSL3 E3 A3SS,−0.309
same,delta PSI,Calu-3 cells; KTN1 E41 SE,0.304
same,delta PSI,Calu-3 cells; LIMCH1 E9 SE,0.42
same,delta PSI,Calu-3 cells; LRP8 E5 SE,0.392
same,delta PSI,Calu-3 cells; LRRC6 E5 SE,0.391
same,delta PSI,Calu-3 cells; LRRC75B E1-E2 SE additional exon,−0.338
same,delta PSI,Calu-3 cells; MAP3K7 E12 SE,0.404
same,delta PSI,Calu-3 cells; MCTP1 E8 SE,0.367
same,delta PSI,Calu-3 cells; METTL26 E2 SE,0.3
same,delta PSI,Calu-3 cells; MON2 E28 SE,0.345
same,delta PSI,Calu-3 cells; MPP3 E11 SE,0.32
same,delta PSI,Calu-3 cells; MSL3 Intron between E4-E6 RI,−0.485
same,delta PSI,Calu-3 cells; MYO6 E34 SE,0.405
same,delta PSI,Calu-3 cells; MYOM1 E18 SE,0.344
same,delta PSI,Calu-3 cells; NAV2 E28 SE,0.437
same,delta PSI,Calu-3 cells; NEK1 E17 SE,0.367
same,delta PSI,Calu-3 cells; NGDN Intron between E4-E7 RI,−0.302
same,delta PSI,Calu-3 cells; OBSL1 E12 SE,0.369
same,delta PSI,Calu-3 cells; PCGF3 E3-E4 SE additional exon,−0.318
same,delta PSI,Calu-3 cells; PDE9A E5 SE,0.378
same,delta PSI,Calu-3 cells; PI4KB E2 SE,0.421
same,delta PSI,Calu-3 cells; PNKP Intron between E14-E16 RI,−0.3
same,delta PSI,Calu-3 cells; PPM1K E2 SE,0.317
same,delta PSI,Calu-3 cells; RBPMS E8 SE,0.301
same,delta PSI,Calu-3 cells; RPGR E14 SE,0.448
same,delta PSI,Calu-3 cells; RPL3 Intron between E7-E9 RI,−0.381
same,delta PSI,Calu-3 cells; RPL13A Intron between E2-E4 RI,−0.654
same,delta PSI,Calu-3 cells; RTN4 E3 SE,0.361
same,delta PSI,Calu-3 cells; SAMD9L Partial Intron on E3 RI,0.364
same,delta PSI,Calu-3 cells; SLC25A29 E2-E3 SE additional exon,−0.314
same,delta PSI,Calu-3 cells; SMARCA1 E13 SE,0.367
same,delta PSI,Calu-3 cells; SNX14 E16 SE,0.336
same,delta PSI,Calu-3 cells; SPATA20 E1-E2 SE additional exon,−0.319
same,delta PSI,Calu-3 cells; TRIM2 E2 SE,0.372
same,delta PSI,Calu-3 cells; TRMU Intron between E9-E11 RI,−0.333
same,delta PSI,Calu-3 cells; WNK1 E11 SE,0.517
same,delta PSI,Calu-3 cells; ZNF519 E3 A3SS,0.316
